Among the test systems are A498 renal; BT-549 breast; DU-145 prostate; HCT-116 colon; HOP-92 NSCLC; MDA-MB-231 breast; NCI-H226 lung; RXF 393 renal; SN12C renal; SR leukemia.
Assay in all cases: inhibition of tumour cell growth, NCI panel, 48 h

Several values for one entry are separate records, joined by “and”; a condition that tells them apart may be missing. Identical values can stand only once.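 Tested at 5 concentrations; 48 h exposure; 96-well plates; endpoints linearly interpolated, else capped at highest concentration. GI50 is the concentration that inhibits growth by half. TGI: total growth inhibition.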

Turning to `C=CC(=O)N[C@H]1C=C(C)c2c(-c3cnc4ccccc4c3)c3c(N)ncnc3n2C1`, the GI50 in the experiment with A498 renal is 351 nM; in the experiment on BT-549 breast, 12.5 µM; in the experiment with DU-145 prostate, 8.05 µM; with HCT-116 colon, 13.2 µM; in the experiment on HOP-92 NSCLC, 2460 nM; in the experiment on MDA-MB-231 breast, 9.57 µM. Further, the GI50 in the experiment with NCI-H226 lung is 8.85 µM; in the experiment with RXF 393 renal it was 2.68 µM; in the experiment with SN12C renal, 12.9 µM; in the experiment on SR leukemia, 18.3 µM. The TGI in the experiment on A498 renal was 3.99 µM; in the experiment with BT-549 breast, 41.9 µM; in the experiment with DU-145 prostate, above 100 µM; with HCT-116 colon it was 34.7 µM; with HOP-92 NSCLC it was 15.7 µM; in the experiment on MDA-MB-231 breast it was 27 µM. Further, the TGI in the experiment on NCI-H226 lung is above 68.1 µM; with RXF 393 renal it was 11.7 µM; in the experiment on SN12C renal, 98.2 µM; in the experiment with SR leukemia it was above 100 µM.

Take `Cc1nn(-c2ccc(F)cc2)c2ncnc(Nc3ccc(NC(=O)Nc4ccc(Cl)c(C(F)(F)F)c4)cc3)c12`: the GI50 was 2600 nM in the experiment with A498 renal; 2.39 µM with BT-549 breast; 3.17 µM with DU-145 prostate; 1.51 µM with HCT-116 colon; 1730 nM in the experiment on HOP-92 NSCLC; 2.03 µM in the experiment with MDA-MB-231 breast. In addition, the GI50 is 2.31 µM in the experiment with NCI-H226 lung, 1.86 µM in the experiment with RXF 393 renal, 2.07 µM in the experiment with SN12C renal and 3.07 µM with SR leukemia. In addition, the TGI with A498 renal is 7.93 µM; in the experiment on BT-549 breast, 8.48 µM; with DU-145 prostate, 11.7 µM; with HCT-116 colon, 5.07 µM; in the experiment with HOP-92 NSCLC, 4.59 µM; in the experiment on MDA-MB-231 breast, 5.55 µM. Further, the TGI in the experiment on NCI-H226 lung was determined as 5.99 µM; in the experiment with RXF 393 renal it was 5.98 µM; in the experiment on SN12C renal, 5.56 µM; in the experiment on SR leukemia, 40.5 µM.

As to `CN1CCN(CC#Cc2cccc(C(=O)c3cnn(-c4ccc(F)cc4)c3N)c2)CC1`, the GI50 is above 25000 nM in the experiment on A498 renal; above 25 µM in the experiment with BT-549 breast; above 25 µM in the experiment on DU-145 prostate; above 25 µM in the experiment with HCT-116 colon; 15200 nM in the experiment on HOP-92 NSCLC; above 25 µM in the experiment with MDA-MB-231 breast. The GI50 with NCI-H226 lung, in the experiment with RXF 393 renal, in the experiment with SN12C renal and in the experiment on SR leukemia was above 25 µM each time. Besides, the TGI in the experiment with A498 renal, in the experiment on BT-549 breast, with DU-145 prostate, with HCT-116 colon, with HOP-92 NSCLC and in the experiment on MDA-MB-231 breast was above 25 µM throughout. The TGI in the experiment with NCI-H226 lung, in the experiment on RXF 393 renal, in the experiment on SN12C renal and with SR leukemia was above 25 µM throughout.

With `CCc1c2c(nc3cc4c(cc13)OCO4)-c1cc3c(c(=O)n1C2)COC(=O)[C@]3(O)CC`, the GI50 was 9.7 nM and 39.7 nM in the experiment with A498 renal; 0.0654 µM and 0.0367 µM in the experiment on BT-549 breast; 1.31 µM in the experiment on HCT-116 colon; 19 nM with HOP-92 NSCLC; 0.0726 µM and 0.167 µM with MDA-MB-231 breast; below 0.001 µM in the experiment on NCI-H226 lung. Besides, the GI50 in the experiment on SR leukemia was below 0.001 µM. The TGI in the experiment on A498 renal is 0.428 µM and 0.834 µM; in the experiment on BT-549 breast it was 5.29 µM and 0.782 µM; in the experiment on DU-145 prostate, above 100 µM; in the experiment on HCT-116 colon, above 100 µM; in the experiment with HOP-92 NSCLC it was above 100 µM; in the experiment with MDA-MB-231 breast it was above 100 µM. The TGI was 0.227 µM with NCI-H226 lung; 0.117 µM and 0.478 µM with RXF 393 renal; above 100 µM in the experiment with SN12C renal.

`CCCCCCCCCCCCCC(=S)NCCCC[C@H](NC(=O)OCc1ccccc1)C(=O)Nc1ccccc1`: the GI50 with A498 renal is 3750 nM; in the experiment with BT-549 breast, 39.6 µM; in the experiment with DU-145 prostate, 6.78 µM; in the experiment on HCT-116 colon, 3.77 µM; in the experiment on HOP-92 NSCLC it was 2300 nM; with MDA-MB-231 breast it was 5.53 µM. Also, the GI50 was 5.71 µM with NCI-H226 lung, 5.91 µM in the experiment on RXF 393 renal, 3.81 µM with SN12C renal and 3.9 µM in the experiment on SR leukemia. For the same compound, the TGI with A498 renal was above 100 µM; in the experiment on BT-549 breast it was above 100 µM; in the experiment with DU-145 prostate it was above 100 µM; with HCT-116 colon, above 100 µM; in the experiment with HOP-92 NSCLC it was 8.25 µM; in the experiment with MDA-MB-231 breast, above 100 µM. Further, the TGI with NCI-H226 lung, in the experiment with RXF 393 renal, in the experiment on SN12C renal and in the experiment on SR leukemia was above 100 µM in each case.

Take `COc1ccc(NC(=O)Nc2n[nH]c3ccccc23)cc1`: the GI50 with A498 renal was above 100000 nM; in the experiment with BT-549 breast it was above 100 µM; in the experiment with DU-145 prostate it was above 100 µM; with HCT-116 colon, above 100 µM; with HOP-92 NSCLC, above 100000 nM; in the experiment with MDA-MB-231 breast, above 100 µM. The GI50 in the experiment on NCI-H226 lung, in the experiment with RXF 393 renal, with SN12C renal and in the experiment on SR leukemia was above 100 µM each time. Further, the TGI in the experiment with A498 renal, in the experiment with BT-549 breast, with DU-145 prostate, in the experiment with HCT-116 colon, in the experiment with HOP-92 NSCLC and with MDA-MB-231 breast was above 100 µM throughout. The TGI with NCI-H226 lung, in the experiment on RXF 393 renal, in the experiment on SN12C renal and in the experiment with SR leukemia was above 100 µM throughout.

The values are drawn from PubChem BioAssay (NCI).
